Values after ≈ are worked out from the molar mass of the structure shown. Where a name gives a salt, the structure may show the parent alone.
Legend:
[1] = test system: methicillin resistant Staphylococcus aureus (MRSA); test: Assay for in vitro antibacterial activity, agar dilution (MRSA); details: read-out: Minimum Inhibitory Concentration (MIC50) MRSA
[2] = test system: vancomycin resistant Enterococci (VRE); test: Assay for in vitro antibacterial activity, agar dilution (VRE); details: Enterococcus, read-out: Minimum Inhibitory Concentration (MIC50) VRE
[3] = Assay for solubility in distilled water (turbidity by naked eye); format: physicochemical; details: average of three runs; for solubility at 2 min: thermodynamic from solid
Experimental: The derivatives of the present invention were added to 200 μl of distilled water and then the solution was stirred for 2 minutes. The turbidity of the solution was watched through naked eye.
When the derivatives were not dissolved completely, 50 μl of distilled water was added to the solution and then the turbidity of the solution was assayed in the above manner to find a point of becoming transparent solution.
When 2 mg of the derivatives was first added to distilled water and completely dissolved so that the solution became transparent, 2 mg of the derivatives was added more to the solution and then state of the solution was watched. The derivatives of the present invention were added to the five times and then solubility of the solution was assayed for. The assay for solubility was carried out the three times repeatedly in the above method and the results were averaged.

SMILES | MIC50 [1] [µg/mL] | MIC50 [2] [µg/mL] | solubility at 2 min [3] [mg/mL] | other results
Cc1nnc(-c2ccc(-c3c(F)cc(N4C[C@H](CO)OC4=O)cc3F)cn2)o1 [Compound 39, (R)-3-(4-(2-(2-methyl-[1,3,4]oxadiazol-5-yl)pyridin-5-yl)-3,5-difluorophenyl)-5-hydroxymethyl oxazolidin-2-one] | 1 (≈ 2.58 µM) | 1 (≈ 2.58 µM) | – | –
CNC[C@H]1CN(c2ccc(-c3ccc(-c4nnn(C)n4)nc3)c(F)c2)C(=O)O1 [Compound 41] | 4 (≈ 10.4 µM) | 8 (≈ 20.9 µM) | – | –
C[C@H](N)C(=O)OC[C@H]1CN(c2ccc(-c3ccc(-c4nnn(C)n4)nc3)c(F)c2)C(=O)O1 [Compound 42, (R)-3-(4-(2-(2-methyltetrazol-5-yl)pyridin-5-yl)-3-fluorophenyl)-5-(L-alanyloxy)methyl oxazolidin-2-one trifluoroacetic acid] | – | – | – | Solubility ([3]; listed as compound 42, trifluoroacetic acid): > 50 mg/mL; Solubility ([3]; trifluoroacetic acid): >50 mg/mL
CC(C)[C@H](N)C(=O)OC[C@H]1CN(c2ccc(-c3ccc(-c4nnn(C)n4)nc3)c(F)c2)C(=O)O1.Cl [Compound 43, (R)-3-(4-(2-(2-methyltetrazol-5-yl)pyridin-5-yl)-3-fluorophenyl)-5-(L-valyloxy)methyl oxazolidin-2-one hydrochloride] | 0.5 | 0.25 | – | Solubility [3]: 4.2 mg/mL
C[C@H](N)C(=O)OC[C@H]1CN(c2ccc(-c3ccc(-c4nnn(C)n4)nc3)c(F)c2)C(=O)O1.Cl [Compound 44, (R)-3-(4-(2-(2-methyltetrazol-5-yl)pyridin-5-yl)-3-fluorophenyl)-5-(L-alanyloxy)methyl oxazolidin-2-one hydrochloride] | 0.5 | 0.25 | > 50 | –
Cl.Cn1nnc(-c2ccc(-c3ccc(N4C[C@H](COC(=O)CN)OC4=O)cc3F)cn2)n1 [Compound 45, (R)-3-(4-(2-(2-methyltetrazol-5-yl)pyridin-5-yl)-3-fluorophenyl)-5-glycyloxymethyl oxazolidin-2-one hydrochloride] | 0.5 | 0.25 | – | Solubility [3]: 12 mg/mL
Cn1nnc(-c2ccc(-c3ccc(N4C[C@H](COC(=O)[C@@H]5CCCN5)OC4=O)cc3F)cn2)n1 [Compound 46, (R)-3-(4-(2-(2-methyltetrazol-5-yl)pyridin-5-yl)-3-fluorophenyl)-5-(L-prolinyloxy)methyl oxazolidin-2-one trifluoroacetic acid] | – | – | < 1.63 | –
Cl.Cn1nnc(-c2ccc(-c3ccc(N4C[C@H](COC(=O)[C@@H]5CCCN5)OC4=O)cc3F)cn2)n1 [Compound 47, (R)-3-(4-(2-(2-methyltetrazol-5-yl)pyridin-5-yl)-3-fluorophenyl)-5-(L-prolinyloxy)methyl oxazolidin-2-one hydrochloride] | 0.5 | 0.25 | 2 | –
Cc1nnc(-c2ccc(-c3ccc(N4C[C@H](COC(=O)CN)OC4=O)cc3F)cn2)o1.Cl [Compound 48, (R)-3-(4-(2-(2-methyl-[1,3,4]oxadiazol-5-yl)pyridin-5-yl)-3-fluorophenyl)-5-glycyloxymethyl oxazolidin-2-one hydrochloride] | 0.5 | 1 | > 50 | –
Cn1nnc(-c2ccc(-c3ccc(N4C[C@H](COC(=O)CCN)OC4=O)cc3F)cn2)n1 [Compound 49, (R)-3-(4-(2-(2-methyltetrazol-5-yl)pyridin-5-yl)-3-fluorophenyl)-5-(β-alanyloxy)methyl oxazolidin-2-one trifluoroacetic acid] | 0.5 (≈ 1.13 µM) | 0.25 (≈ 0.566 µM) | – | Solubility ([3]; trifluoroacetic acid): 2.6 mg/mL (≈ 5890 µM)
Cn1nnc(-c2ccc(-c3ccc(N4C[C@H](COC(=O)CCN)OC4=O)cc3F)cn2)n1 [Compound 50, (R)-3-(4-(2-(2-methyltetrazol-5-yl)pyridin-5-yl)-3-fluorophenyl)-5-(β-alanyloxy)methyl oxazolidin-2-one hydrochloride] | – | – | – | Solubility ([3]; hydrochloride): 20.4 mg/mL
Cc1nnc(-c2ccc(-c3ccc(N4C[C@H](COC(=O)[C@H](C)N)OC4=O)cc3F)cn2)o1 [Compound 51, (R)-3-(4-(2-(2-methyl-[1,3,4]oxadiazol-5-yl)pyridin-5-yl)-3-fluorophenyl)-5-(L-alanyloxy)methyl oxazolidin-2-one trifluoroacetic acid] | – | – | > 50 | –
Cc1nnc(-c2ccc(-c3ccc(N4C[C@H](COC(=O)[C@@H](N)C(C)C)OC4=O)cc3F)cn2)o1 [Compound 53, (R)-3-(4-(2-(2-methyl-[1,3,4]oxadiazol-5-yl)pyridin-5-yl)-3-fluorophenyl)-5-(L-valyloxy)methyl oxazolidin-2-one trifluoroacetic acid] | – | – | 30.3 (≈ 64500 µM) | –
Cc1nnc(-c2ccc(-c3ccc(N4C[C@H](COC(=O)[C@@H]5CCCN5)OC4=O)cc3F)cn2)o1 [Compound 55, (R)-3-(4-(2-(2-methyl-[1,3,4]oxadiazol-5-yl)pyridin-5-yl)-3-fluorophenyl)-5-(L-prolinyloxy)methyl oxazolidin-2-one trifluoroacetic acid] | – | – | 7.2 (≈ 15400 µM) | –
Cc1nnc(-c2ccc(-c3ccc(N4C[C@H](COC(=O)CCN)OC4=O)cc3F)cn2)o1 [Compound 57, (R)-3-(4-(2-(2-methyl-[1,3,4]oxadiazol-5-yl)pyridin-5-yl)-3-fluorophenyl)-5-(β-alanyloxy)methyl oxazolidin-2-one trifluoroacetic acid] | – | – | > 50 | –
Cn1nnnc1-c1ccc(-c2ccc(N3C[C@H](CO)OC3=O)cc2F)cn1 [Compound 61, (R)-3-(4-(2-(1-methyltetrazol-5-yl)pyridin-5-yl)-3-fluorophenyl)-5-hydroxymethyl oxazolidin-2-one] | 0.5 (≈ 1.35 µM) | 0.25 (≈ 0.675 µM) | – | –
Cn1nnnc1-c1ccc(-c2ccc(N3C[C@H](COC(=O)CN)OC3=O)cc2F)cn1 [Compound 62, (R)-3-(4-(2-(1-methyltetrazol-5-yl)pyridin-5-yl)-3-fluorophenyl)-5-glycyloxymethyl oxazolidin-2-one trifluoroacetic acid] | – | – | 28 (≈ 65500 µM) | –
Cl.Cn1nnnc1-c1ccc(-c2ccc(N3C[C@H](COC(=O)CN)OC3=O)cc2F)cn1 [Compound 63, (R)-3-(4-(2-(1-methyltetrazol-5-yl)pyridin-5-yl)-3-fluorophenyl)-5-glycyloxymethyl oxazolidin-2-one hydrochloride] | 0.5 | 0.25 | – | –
C[C@H](N)C(=O)OC[C@H]1CN(c2ccc(-c3ccc(-c4nnnn4C)nc3)c(F)c2)C(=O)O1 [Compound 64, (R)-3-(4-(2-(1-methyltetrazol-5-yl)pyridin-5-yl)-3-fluorophenyl)-5-(L-alanyloxy)methyl oxazolidin-2-one trifluoroacetic acid] | – | – | > 50 | –
C[C@H](N)C(=O)OC[C@H]1CN(c2ccc(-c3ccc(-c4nnnn4C)nc3)c(F)c2)C(=O)O1.Cl [Compound 65, (R)-3-(4-(2-(1-methyltetrazol-5-yl)pyridin-5-yl)-3-fluorophenyl)-5-(L-alanyloxy)methyl oxazolidin-2-one hydrochloride] | 0.5 | 0.25 | – | –
CC(C)[C@H](N)C(=O)OC[C@H]1CN(c2ccc(-c3ccc(-c4nnnn4C)nc3)c(F)c2)C(=O)O1 [Compound 66, (R)-3-(4-(2-(1-methyltetrazol-5-yl)pyridin-5-yl)-3-fluorophenyl)-5-(L-valyloxy)methyl oxazolidin-2-one trifluoroacetic acid] | – | – | 4.7 (≈ 10000 µM) | –
CC(C)[C@H](N)C(=O)OC[C@H]1CN(c2ccc(-c3ccc(-c4nnnn4C)nc3)c(F)c2)C(=O)O1.Cl [Compound 67, (R)-3-(4-(2-(1-methyltetrazol-5-yl)pyridin-5-yl)-3-fluorophenyl)-5-(L-valyloxy)methyl oxazolidin-2-one hydrochloride] | 0.5 | 0.25 | – | –
Cn1nnnc1-c1ccc(-c2ccc(N3C[C@H](COC(=O)CCN)OC3=O)cc2F)cn1 [Compound 68, (R)-3-(4-(2-(1-methyltetrazol-5-yl)pyridin-5-yl)-3-fluorophenyl)-5-(β-alanyloxy)methyl oxazolidin-2-one trifluoroacetic acid] | – | – | 2.6 (≈ 5890 µM) | –
Cl.Cn1nnnc1-c1ccc(-c2ccc(N3C[C@H](COC(=O)CCN)OC3=O)cc2F)cn1 [Compound 69, (R)-3-(4-(2-(1-methyltetrazol-5-yl)pyridin-5-yl)-3-fluorophenyl)-5-(β-alanyloxy)methyl oxazolidin-2-one hydrochloride] | 0.5 | 0.25 | – | –
Cn1nnnc1-c1ccc(-c2ccc(N3C[C@H](Cn4ccnn4)OC3=O)cc2F)cn1 [Compound 71, (R)-3-(4-(2-(1-methyltetrazol-5-yl)pyridin-5-yl)-3-fluorophenyl)-5-([1,2,3]triazol-1-yl)methyl oxazolidin-2-one] | 0.5 (≈ 1.19 µM) | 0.125 (≈ 0.297 µM) | – | –
Cn1nnc(-c2ccc(-c3ccc(N4C[C@H](COP(=O)(O)O)OC4=O)cc3F)cn2)n1 [Compound 72, mono-[(R)-[3-(4-(2-(2-methyltetrazol-5-yl)pyridin-5-yl)-3-fluorophenyl)-2-oxo-5-oxazolidinyl]methyl]phosphate] | 32 (≈ 71.1 µM) | 32 (≈ 71.1 µM) | – | –
Cn1nnnc1-c1ccc(-c2ccc(N3C[C@H](COP(=O)(O)O)OC3=O)cc2F)cn1 [Compound 73, mono-[(R)-[3-(4-(2-(1-methyltetrazol-5-yl)pyridin-5-yl)-3-fluorophenyl)-2-oxo-5-oxazolidinyl]methyl]phosphate] | 32 (≈ 71.1 µM) | 32 (≈ 71.1 µM) | – | –
CC(=O)NC[C@H]1CN(c2ccc(N3CCOCC3)c(F)c2)C(=O)O1 [Zyvox, reference compound] | 2 (≈ 5.93 µM) | 2 (≈ 5.93 µM) | – | –
